Columns and labels:
Type in all cases: cell-based
[1] = system: OVCAR-3 human ovarian cancer cell line; assay: MTT cytostatic-cytotoxic activity, OVCAR-3; conditions: OVCAR-3, 48 h treatment; for GI50 / IC50: Homo sapiens; for IC50: kills 50% of the cells
Procedure: (§1) SKOV-3 (SKOV-3) (ATCC HTB 77) and OVCAR-3 (ATCC® HTB-161™)
(§2) Human ovarian adenocarcinoma cells, which are grown easily in monolayer culture with epithelial-like morphology. SKOV-3 are resistant to tumor necrosis factor (TNF) and to other cytotoxic drugs such as cisplatin, and adriamycin, while OVCAR-3 are resistant to adriamycin, cisplatin and melphalan. These cell lines express androgens, estrogens and progesterone receptors. When SKOV-3 or OVCAR-3 cells are subcutaneously implanted in nude mice, SCID mice, a moderately differentiated tumor develops, and the resulting model resembles primary ovarian adenocarcinoma in humans.
(§3) All cancer cell lines are stored in a liquid nitrogen tank in 2.5 ml cryovials (Corning-Costar, Cambridge, Mass.). DMSO (dimethylsulfoxide) act as a cryoprotectant and is added to prevent the formation of ice crystals which may lyse the cells. The Cells were grown as monolayer cultures in T-75 flasks (Corning-Costar, Cambridge, Mass.) and maintained at 37° C. in 5% CO2 incubator & 100% relative humidity. The cultures medium used are McCoy's 5a Medium, supplemented with 10% fetal bovine serum (FBS, Gibco) and 1% antibiotics (100 IU/ml penicillin/100 µg/ml streptomycin), sterilized by filtration (Corning-Costar filter, diameter 0.2 μm, RPMI-1640 and 50% RPMI-1640 (Catalog No 30-2001) plus 50% Mammary Epithelial Growth Medium (MEGM), supplemented with 10% fetal bovine serum (FBS, Gibco) and 1% antibiotics (100 IU/ml penicillin/100 μg/ml streptomycin). The passage is performed every 3-4 to days as follows: Cells are washed with sterile PBS (Phosphate buffered saline): 8 g/l NaCl, 0,2 g/l KCl, 1,15 g/l Na2HPO4καl 0,2 g/l KH2PO4. pH:7,4), add 2-3 ml 0.05% trypsin (Gibco 1:250) and 0.02% EDTA to cover the monolayer and incubate the flask at 3TC for 5-10 minutes. Trypsin-EDTA, is used mainly to detach the cells from the flask and prepare a single cell suspension. Finally, the number of cells can be determined by direct counting using a Neubauer chamber and cell viability is determined by staining the cells with trypan blue.
(§4) In the experimental study the in vitro effect of the compound type (I) was evaluated against ovarian cancer cell lines UWB1.289, UWB1.289+BRCA1 Kai SKOV-3.The cells were plated in 96-well plate (MTP) at a density of 1×10^4cells/m1 per well and maintained for 72 h at 3TC in a 5% CO2 incubator and grown as monolayers. The selection of the initial number of cells was made according to the rate of proliferation of the cell line, in order the cells throughout the experiment are in an exponential (log) growth phase. After 24 hours, cells were treated with 1-100 μmol/l of the tested compounds for 48 h. Experiments were carried out using triplicate wells. The viability of cultured cells was estimated by an (3-(4,5-imethylthiazol-2-yl)-2,5-diphenyltetrazolium bromide (MTT) metabolic assay as described previously (Finlay G J, Wilson W R and Baguley B C: Comparison of in vitro activity of cytotoxic drugs towards human carcinoma and leukaemia cell lines. Eur J Cancer Clin Oncol 22: 655-662, 1986; Alley M C, Scudiero D A, Monks A, Hursey M L, Czerwinski M J, Fine D L, et al. Feasibility of drug screening with panels of human tumor cell lines using a microculture tetrazolium assay. Cancer Res 1988; 48:589-601). MTT (Sigma, St Louis, Mo., USA) was dissolved in PBS in a concentration of 5 mg/ml, filter sterilized, and stored at 4° C. MTT (50 μl of stock solution) was added to each culture and incubated for 3 h at 3TC to allow metabolization. Formazan crystals were solubilized by DMSO (100 μl). Absorbance of the converted dye was measured at a wavelength of 540nm on ELISA reader (BioTek, Winooski, Vt., USA).
(§5) GI50: The mean concentration that causes 50% inhibition of cell growth (Growth Inhibition 50%). The calculation of the value is based on the formula: (Tt72x)−(Ct24)/(Ct72)-(Ct24)×100=50
(§6) TGI: The mean concentration that causes 100% inhibition of cell growth (Total Growth Inhibition). […]

[2] = system: SKOV-3 human ovarian cancer cell line; assay: MTT cytostatic-cytotoxic activity, SKOV-3; conditions: for GI50 / IC50: Homo sapiens, SK-OV-3, SKOV-3, 48 h treatment; for IC50: kills 50% of the cells; for TGI: SKOV-3, 48 h treatment
Procedure: as §1, §2, §3, §4, §5, §6

[3] = system: T-47D human breast cancer cell line; assay: MTT cytostatic-cytotoxic activity, T-47D; conditions: 48 h treatment; for GI50 / IC50: Homo sapiens, T47D; for GI50: 48 h; for IC50: kills 50% of the cells
[4] = system: MOLT-4 human acute T-leukemia cell line; assay: MTT cytostatic-cytotoxic activity, MOLT-4; conditions: MOLT-4, 48 h treatment; for GI50 / IC50: Homo sapiens; for IC50: kills 50% of the cells
[5] = system: all 9 human cancer cell lines; assay: MTT cytostatic-cytotoxic activity, all 9 human cancer cell lines

Structure (SMILES) | GI50 [1] [µM] | IC50 [1] [µM] | TGI [1] [µM] | GI50 [2] [µM] | IC50 [2] [µM] | TGI [2] [µM] | TGI [3] [µM] | GI50 [3] [µM] | IC50 [3] [µM] | GI50 [4] [µM] | IC50 [4] [µM] | TGI [4] [µM] | IC50 ([5]; Homo sapiens, read-out: (cytotoxic)) [µM] | GI50 ([5]; in all 9 human cancer cell lines, read-out: IG50 (cytostatic)) [µM]
COc1cc(Cc2nnc3sc(-c4ccc(N)cc4)nn23)c(S(=O)(=O)N(C)C)cc1OC [TS71, 3-[2-(N,N-dimethylsulfamoyl)-4,5-dimethoxybenzyl]-6-(4-aminophenyl)-1,2,4-triazolo[3,4-b]-1,3,4-thiazole] | 97 | > 100 | >100 | > 100 | > 100 | >100 | >100 | > 100 | > 100 | 55 | > 100 | >100 | – | –
COc1cc(Cc2nnc3sc(-c4ccccc4N)nn23)c(S(=O)(=O)N(C)C)cc1OC [TS57, 3-[2-(N,N-dimethylosulfamoyl)-4,5-dimethoxybenzyl]-6-(2-aminophenyl)-1,2,4-triazolo[3,4-b]-1,3,4-thiazole] | 95 | > 100 | >100 | > 100 | > 100 | >100 | >100 | > 100 | > 100 | 94 | > 100 | >100 | – | –
COc1cc(Cc2nnc3sc(-c4ccccc4)nn23)c(S(=O)(=O)N(C)C)cc1OC [TS167, 3-[2-(N,N-dimethylsulfamoyI)-4,5-dimethoxy-benzyl]-6-phenyl-1,2,4-triazolo[3,4-b]-1,3,4-thiazole] | 65 | > 100 | >100 | 80 | > 100 | >100 | >100 | 52 | > 100 | 42 | > 100 | >100 | > 100 | < 100
COc1cc(Cc2nnc3sc(/C=C/c4ccc(Cl)cc4)nn23)c(S(=O)(=O)N(C)C)cc1OC [TS26, 3-[2-(N,N-dimethylsulfamoyl)-4,5-dimethoxybenzyl]-6-(E)-4-chlorostyryl-1,2,4-triazolo[3,4-b]-1,3,4-thiazole] | 41 | > 100 | 87 | 38 | > 100 | 72 | >100 | 78 | > 100 | 32 | > 100 | 81 | – | –
COc1ccc(Cc2nn3c(Cc4cc(OC)c(OC)cc4S(=O)(=O)N(C)C)nnc3s2)cc1 [TS50, 3-[2-(N,N-dimethylsulfamoyl)-4,5-dimethoxybenzyl]-6-(4-methoxybenzyl)-1,2,4-triazolo[3,4-b]-1,3,4-thiazole] | 5 | > 100 | 86 | 6 | > 100 | >100 | >100 | 28 | > 100 | 10 | > 100 | >100 | – | –
COc1cc(Cc2nnc3sc(Cc4ccccc4)nn23)c(S(=O)(=O)N(C)C)cc1OC [TS62, 3-[2-(N,N-dimethylsulfamoyl)-4,5-dimethoxybenzyl]-6-benzyl-1,2,4-triazolo[3,4-b]-1,3,4-thiazole] | 8 | > 100 | 68 | 12 | > 100 | 56 | >100 | 24 | > 100 | 7 | > 100 | 55 | – | –
COc1cc(Cc2nnc3sc(/C=C/c4ccc(F)cc4)nn23)c(S(=O)(=O)N(C)C)cc1OC [TS25, 3-[2-(N,N-dimethylsulfamoyl)-4,5-dimethoxybenzyl]-6-(E)-4-fluorostyryl-1,2,4-triazolo[3,4-b]-1,3,4-thiazole] | 24 | 94 | 68 | 18 | 80 | 52 | 34 | 12 | 76 | 16 | 78 | 29 | – | –
COc1cc(Cc2nnc3sc(-c4ccc(Cl)cc4)nn23)c(S(=O)(=O)N(C)C)cc1OC [TS63, 3-[2-(N,N-dimethylsulfamoyl)-4,5-dimethoxybenzyl]-6-(4-chlorophenyl)-1,2,4-triazolo[3,4-b]-1,3,4-thiazole] | 3 | > 100 | 32 | 8 | > 100 | 38 | 55 | 27 | > 100 | 6 | 78 | 45 | – | –
